In US12691186B2, “B7-H3 miniproteins, conjugates, and uses thereof” (priority 2023, dated 2026):

Test system: >6,500 different human proteins
Assay: Off-target binding, cell microarray platform (Retrogenix Assay) in HEK293 cells
Conditions: biotin-labeled molecules
Method: To evaluate potential off-target binding, eight biotin-labeled molecules were tested in a cell microarray platform (Charles River Lab, Retrogenix Assay) having >6,500 different human proteins spanning diverse functions and subcellular locations.
Initially, two pools of molecules were tested. Pool #1 consisted of C298, C300, C302, C304, and pool #2 consisted of C306, C308, C310, and C312 at 2 μg/mL for each molecule. To perform this assay, HEK293 cells were plated on a dish and localized spots of cells were transiently over-expressed with a cDNA encoding for one of the >6,500 targets. Included in this library were two isoforms of CD276 (B7-H3) and B7-H3 related proteins (B7-1, B7-2, B7-H1/PD-L1, and B7-H2). The molecule pools were incubated on the fixed, over-expressing cell microarrays (n=2 per protein), and binding was visualized using Alexa Fluor 647 streptavidin fluorescence. All transfection efficiencies exceeded minimum thresholds for the microarray expression targets. Preliminary interactions identified from pooled results were re-spotted in duplicates, and each of the eight compounds were tested individually (n=2) at 2 μg/mL and/or in dose response against these targets as described above to validate the interactions.
All positive control interactions were strong and passed quality control. Specific interactions observed (median SNR≥1) confirmed on-target B7-H3 binding in two different isoforms for each of the eight test molecules. These interactions with the primary target occurred after fixation and in live cells (absence of fixation). No significant additional interactions were confirmed for any test molecules outside of B7-H3, indicating high specificity for the primary target (data not shown).

Molecule | background binding to untransfected HEK293 cells
CC[C@H](C)[C@@H]1NC(=O)[C@H](Cc2ccccc2)NC(=O)[C@H](C)NC(=O)[C@H](CCCCNC)NC(=O)[C@H]([C@@H](C)CC)NC(=O)[C@H](CCC(N)=O)NC(=O)[C@H](C)NC(=O)[C@H](Cc2ccc(O)cc2)NC(=O)[C@H]([C@@H](C)O)NC(=O)[C@H](CC(C)C)NC(=O)[C@@H]2CSSC[C@@H](C(=O)N[C@@H](CO)C(N)=O)NC(=O)[C@H](CC(C)C)NC(=O)[C@H](CCC(=O)O)NC(=O)[C@H](CCCCNC)NC(=O)[C@H](C)NC(=O)[C@H](CCC(=O)O)NC(=O)[C@H](CO)NC(=O)[C@H](CC(C)C)NC(=O)[C@H]([C@@H](C)CC)NC(=O)[C@H](CCC(=O)O)NC(=O)[C@H](CO)NC(=O)[C@H](CO)NC(=O)[C@H](CC(N)=O)NC(=O)[C@H](CSSC[C@H](NC(=O)CCOCCOCCOCCOCCNC(=O)CCCC[C@@H]3SC[C@@H]4NC(=O)N[C@@H]43)C(=O)N[C@@H](C)C(=O)N[C@@H](CCCC[N+](C)(C)C)C(=O)N[C@@H](CCC(=O)O)C(=O)N[C@@H](CCCCN)C(=O)N[C@@H]([C@@H](C)CC)C(=O)N[C@@H](C)C(=O)N[C@@H](C)C(=O)N[C@@H](CC(C)C)C(=O)N[C@@H](CO)C(=O)N[C@@H](CCC(=O)O)C(=O)N[C@@H]([C@@H](C)CC)C(=O)N[C@@H]([C@@H](C)CC)C(=O)N[C@@H](Cc3c[nH]c4ccccc34)C(=O)N[C@@H](CC(C)C)C(=O)N3CCC[C@H]3C(=O)N2)NC(=O)[C@@H]2CCCN2C(=O)[C@H](CC(=O)O)NC(=O)[C@H](CC(=O)O)NC(=O)[C@H](CC(N)=O)NC(=O)[C@H](CC(C)C)NC(=O)[C@H](C)NC(=O)[C@H](C)NC1=O [Compound C312] | low-background binding
C298 (CAXEKIAALSEIIWLPCLTYAQIXAFIAALNDDPCQSSEILSEAKELCS; Biotin-PEG4 N-term, methylated lysines, C-amide; SITE 3 trimethyllysine; SITE 24 dimethyllysine) [Compound C298] | low-background binding
